Test results: patent US10544110B2, “Small molecule inhibitors of the nuclear translocation of androgen receptor for the treatment of castration-resistant prostate cancer” (University of Pittsburgh-Of the Commonwealth System of …, priority 2013, dated 2020)
Several values for one entry are separate records, joined by “and”; a condition that tells them apart may be missing. Equal entries are not always repeated.

Tested on: AR transcriptional activity (PSA promoter activity)
Experiment: PSA luciferase assay in C4-2-PSA-rl cells (Dual-Glo luciferase system)
Conditions: for IC50 / activity in PSA luciferase assay (in words): C4-2-PSA-rl cells; for IC50: 24 h treatment, 1 nM R1881, mean and SD of 2-6 independent experiments; for activity in PSA luciferase assay (in words): up to 25 μM
Description: C4-2-PSA-rl cells were seeded in 24-well plates such that they reached 75-80% cell monolayer density after 24 h. […] Each compound was tested in at least two independent experiments. Luciferase activity was assayed using the Dual-Luciferase® Reporter Assay System (Promega) using LMax II Microplate Reader (Molecular Devices). The luciferase assay results were acquired using SoftMax Pro5.45 software (Molecular Devices) and analyzed using GraphPad Prism. PSA6.1-luc activity was normalized to the Renilla luciferase activity. Relative luciferase activity was calculated as the quotient of androgen-induced PSA-firefly/Renilla luciferase activity. Since PSA promoter activity correlates to AR transcriptional activity, inhibition of AR will result in decreased PSA-luciferase activity.

Row | Structure (SMILES) | IC50 (24 h) [µM] | activity in PSA luciferase assay (in words) | IC50 | increase in activity relative to amide 5b (amine 6 vs amide 5b) [fold]
1 | COc1ccccc1N1CCN(C(=O)CSCc2c(C)noc2C)CC1 [Compound 5h, 2-(((3,5-Dimethylisoxazol-4-yl)methyl)thio)-1-(4-(2-methoxyphenyl)piperazin-1-yl)ethanone] | > 25 | complete loss of activity |  | 
2 | Cc1ccccc1N1CCC(OC(=O)NCSCc2c(C)noc2C)CC1 [Compound 20b] | > 25 | inactive |  | 
3 | Cc1ccccc1N1CCN(C(=O)COCc2c(C)noc2C)CC1 [Compound 18a, 2-((3,5-Dimethylisoxazol-4-yl)methoxy)-1-(4-(o-tolyl)piperazin-1-yl)ethan-1-one] | > 25 | abolished activity |  | 
4 | Cc1ccccc1N1C[C@@H](C)N(C(=O)CSCc2c(C)noc2C)[C@@H](C)C1 [Compound 5k, 1-(2,6-Dimethyl-4-(o-tolyl)piperazin-1-yl)-2-(((3,5-dimethylisoxazol-4-yl)methyl)thio)ethanone] | 3.1 | significantly more potent than 1 |  | 
5 | Cc1ccccc1N1CCN(C(=O)CSCc2ccccc2)CC1 [Compound 7, 2-(Benzylthio)-1-(4-(o-tolyl)piperazin-1-yl)ethanone] | 14 |  | 13.7 ± 0.8 µM | 
6 | Cc1ccccc1N1CCN(C(=O)CSCc2c(C)noc2C)CC1 [Compound 5b, 2-(((3,5-Dimethylisoxazol-4-yl)methyl)thio)-1-(4-(o-tolyl)piperazin-1-yl)ethanone] | 14.5 |  |  | 
7 | Cc1ccccc1N1CCN(C(=O)C#Cc2ccccc2)CC1 [Compound 10, 3-Phenyl-1-(4-(o-tolyl)piperazin-1-yl)prop-2-yn-1-one] | 20.3 ± 11.6 | essentially inactive |  | 
8 | Cc1ccccc1C1CC2CCC(C1)N2C(=O)CSCc1c(C)noc1C (stereo not drawn) [Compound 26a, 2-(((3,5-Dimethylisoxazol-4-yl)methyl)thio)-1-(3-endo-(o-tolyl)-8-azabicyclo[3.2.1]octan-8-yl)ethanone] |  |  | 8 µM and 7.7 µM | 
9 | Cc1noc(C)c1CSCC(=O)N1CCN(c2cccc3ccccc23)CC1 [Compound 5g, 2-(((3,5-Dimethylisoxazol-4-yl)methyl)thio)-1-(4-(naphthalen-1-yl)piperazin-1-yl)ethanone] | 11.1 |  |  | 
10 | Cc1ccccc1N1CCN(C(=O)CSc2ccccc2)CC1 [Compound 9, 2-(Phenylthio)-1-(4-(o-tolyl)piperazin-1-yl)ethan-1-one] | > 25 | abolished activity |  | 
11 | Cc1noc(C)c1CSCC(=O)N1CCN(c2ccccc2F)CC1 [Compound 5f, 2-(((3,5-Dimethylisoxazol-4-yl)methyl)thio)-1-(4-(2-fluorophenyl)piperazin-1-yl)ethan-1-one] | 12 to 13 |  | 12.6 ± 7.7 µM | 
12 | Cc1ccccc1N1CCN(C(=O)C2CC2c2ccccc2)CC1 (centres unmarked) [Compound 15, (2-Phenylcyclopropyl)(4-(o-tolyl)piperazin-1-yl)methanone] | 2.9 | significantly more potent than 1 |  | 
13 | Cc1ccccc1N1CCN(C(=O)NCSCc2c(C)noc2C)CC1 [Compound 20a, N-((((3,5-Dimethylisoxazol-4-yl)methyl)thio)methyl)-4-(o-tolyl)piperazine-1-carboxamide] | > 25 | inactive |  | 
14 | Cc1noc(C)c1CSCC(=O)N1C[C@@H](C)N(c2ccccc2)[C@@H](C)C1 [Compound 5l, 1-(3,5-Dimethyl-4-phenylpiperazin-1-yl)-2-(((3,5-dimethylisoxazol-4-yl)methyl)thio)ethan-1-one] | 15 to 17 |  | 14.7 ± 4.4 µM | 
15 | Cc1ccccc1N1CCN(C(=O)/C=C/c2ccccc2)CC1 [Compound 11, (E)-3-Phenyl-1-(4-(o-tolyl)piperazin-1-yl)prop-2-en-1-one] | > 25 | essentially inactive |  | 
16 | Cc1cccc(N2CCN(C(=O)CSCc3c(C)noc3C)CC2)c1 [Compound 5c, 2-(((3,5-Dimethylisoxazol-4-yl)methyl)thio)-1-(4-(m-tolyl)piperazin-1-yl)ethanone] | > 25 | loss of activity |  | 
17 | Cc1cccc(N2[C@H](C)CN(C(=O)CSCc3c(C)noc3C)C[C@@H]2C)c1 [Compound 5m, 1-(3,5-Dimethyl-4-(m-tolyl)piperazin-1-yl)-2-(((3,5-dimethylisoxazol-4-yl)methyl)thio)ethan-1-one] | 15 to 17 |  | 16.6 ± 4.8 µM | 

Row | Structure (SMILES) | IC50 (24 h) [µM] | activity in PSA luciferase assay (in words) | IC50 | increase in activity relative to amide 5b (amine 6 vs amide 5b) [fold]
18 | Cc1ccccc1N(C)CCN(C)C(=O)CSCc1c(C)noc1C [Compound 5i, 2-(((3,5-Dimethylisoxazol-4-yl)methyl)thio)-N-methyl-N-(2-(methyl(o-tolyl)amino)ethyl) acetamide] | 18.4 |  |  | 
19 | Cc1ccccc1N1CCN(C(=O)CCCc2ccccc2)CC1 [Compound 8, 4-Phenyl-1-(4-(o-tolyl)piperazin-1-yl)butan-1-one] | 14 |  | 14.4 ± 3.7 µM | 
20 | Cc1ccccc1N1CCN(C(=O)C[S+]([O-])Cc2c(C)noc2C)CC1 (centres unmarked) [Compound 12, 2-(((3,5-Dimethylisoxazol-4-yl)methyl)sulfinyl)-1-(4-(o-tolyl)piperazin-1-yl)ethan-1-one] | > 25 | inactive |  | 
21 | Cc1ccccc1N1CCN(CCSCc2c(C)noc2C)CC1 [Compound 6, 3,5-Dimethyl-4-(((2-(4-(o-tolyl)piperazin-1-yl)ethyl)thio)methyl)isoxazole] | 10.8 |  |  | 1.3
22 | Cc1ccccc1N1CCN(C(=O)CS(=O)(=O)Cc2c(C)noc2C)CC1 [Compound 13, 2-(((3,5-Dimethylisoxazol-4-yl)methyl)sulfonyl)-1-(4-(o-tolyl)piperazin-1-yl)ethan-1-one] | 16.1 |  |  | 
23 | Cc1ccc(N2CCN(C(=O)CSCc3c(C)noc3C)CC2)cc1 [Compound 5d, 2-(((3,5-Dimethylisoxazol-4-yl)methyl)thio)-1-(4-(p-tolyl)piperazin-1-yl)ethanone] | > 25 | loss of activity |  | 
24 | Cc1ccccc1N1CCN(C(=O)/C=C\c2ccccc2)CC1 [Compound 14, (Z)-3-Phenyl-1-(4-(o-tolyl)piperazin-1-yl)prop-2-en-1-one] | 12.7 |  |  | 
25 | Cc1ccccc1N1CCN(S(=O)(=O)CSCc2c(C)noc2C)CC1 [Compound 18c, 3,5-Dimethyl-4-(((((4-(o-tolyl)piperazin-1-yl)sulfonyl)methyl)thio)methyl)isoxazole] | 7.2 |  |  | 
26 | Cc1ccccc1N1CCCN(C(=O)CSCc2c(C)noc2C)CC1 [Compound 5j, 2-(((3,5-Dimethylisoxazol-4-yl)methyl)thio)-1-(4-(o-tolyl)-1,4-diazepan-1-yl)ethan-1-one] | 11.1 |  |  | 
27 | Cc1ccccc1[C@@H]1C[C@H]2CC[C@@H](C1)N2C(=O)CSCc1c(C)noc1C [Compound 26b] |  |  | 8 µM and 7.9 µM | 
28 | Cc1ccc(Cl)cc1N1CCN(C(=O)[C@@H]2C[C@@H]2c2ccc(F)cc2)CC1 [JJ-450B, (4-(5-Chloro-2-methylphenyl)piperazin-1-yl)((1R,2S)-2-(4-fluorophenyl)cyclopropyl)-methanone] | 13.1 ± 1.8 |  |  | 
29 | Cc1noc(C)c1CSCC(=O)N1CCN(c2ccccc2C#N)CC1 [Compound 5e, 2-(4-(2-(((3,5-Dimethylisoxazol-4-yl)methyl)thio)acetyl)piperazin-1-yl)benzonitrile] | 12 to 13 |  | 12 ± 1.6 µM | 
30 | Cc1ccccc1N1CCN(C(=O)[C@H]2C[C@@H]2c2ccccc2)CC1 (racemic) [Compound 16, ((1SR,2SR)-2-Phenylcyclopropyl)(4-(o-tolyl)piperazin-1-yl)methanone] | > 25 | essentially inactive |  | 
31 | Cc1ccc(Cl)cc1N1CCN(C(=O)[C@H]2C[C@H]2c2ccc(F)cc2)CC1 [JJ-450A, (4-(5-chloro-2-methylphenyl)piperazin-1-yl)((1S,2R)-2-(4-fluorophenyl)cyclopropyl)methanone] | 1.6 ± 0.1 | significantly more potent than 1 |  | 
32 | Cc1ccccc1N1CCN(C(=O)CN(C)Cc2ccccc2)CC1 [Compound 18b, 2-(Benzyl(methyl)amino)-1-(4-(o-tolyl)piperazin-1-yl)ethanone] | > 25 | abolished activity |  | 
33 | Cc1noc(C)c1CSCC(=O)N1CCN(c2ccccc2)CC1 [Compound 5a, 2-(((3,5-Dimethylisoxazol-4-yl)methyl)thio)-1-(4-phenylpiperazin-1-yl)ethanone] | > 25 | deleted activity |  | 
